Consider two molecules from patent publication US12122811B2, “BDNF mimetic peptide amphiphiles” (Northwestern University, priority 2018, dated 2024).

Assay [1] deals with neuronal cells. The assay can be described thus: Neuronal maturation markers (MAP2, PSD95) by immunocytochemistry and western blot. It counts as cell-based, mouse. The following applies: neuronal cells (14 DIV) cultured during 16 DIV with treatment. Here is the method: Western Blot. Protein was extracted from primary neuronal cultures with Halt Protease and Phosphatase Inhibitor Cocktail (Thermo Scientific) and a BCA assay (Thermo Scientific) was performed to determine protein content of each sample. Cell protein was loaded into and separated using a 4-20% SDS-PAGE gel (Bio-Rad). It was then electrotransferred from the gel to a nitrocellulose membrane (Bio-Rad). The membranes were blocked with 5% milk solution (Bio-Rad) for 30 minutes followed by an overnight incubation with primary antibodies at 4° C. […] Protein signals were detected using Radiance Bioluminescent ECL substrate (Azure Biosystems). Densitometry analysis, standardized to total receptor content or Actin as a control for protein loading, was performed using ImageJ software.^3 For quantification, triplicate samples were analyzed and at least two different experiments were conducted. […]
Background: A western blot detects proteins with antibodies after separation by electrophoresis.

Assay [2] concerns primary mouse cortical neurons. The assay can be described thus: Multi-electrode array (MEA) electrophysiology of neuronal cultures. It is filed as cell-based. The following applies: for spontaneous firing frequency: 30 days in vitro, relative to control condition; for network burst duration / spikes per network burst: over time, vs control media. How it is done:
Electrophysiology—Multi Electrode Array (MEA) Plates. For 2D electrophysiology studies, 12 well MEA plates with 64 electrodes per well were coated with PEI and laminin according to Axion Biosystems protocols.^5 Embryonic primary neurons were seeded at a density of 60,000 cells/well and cultured during 14 DIV. On day 14, cells were treated with BDNF protein, BDNF PA, BDNF Peptide, or starvation media. Every 5 days, half of the media was removed from each well and replaced with fresh media containing additional treatment. Spontaneous network and synchronized activity was recorded using Axion Biosystems Maestro 768 channel amplifier and Axion Integrated Studios (AxIS) v2.4 software. The amplifier recorded from all channels simultaneously using a gain of 1200× and a sampling rate of 12.5 kHz/channel. After passing the signal through a Butterworth band-pass filter (300-5000 Hz) on-line spike detection (threshold=6× the root-mean-square of noise on each channel) was done with the AxIS adaptive spike detector. All recordings were conducted at 37° C. with appropriate 5% CO2/95% O2. Spontaneous network activity was recorded for 5 min each day starting at 10 DIV. Active electrodes were defined as having >5 spikes/min and only wells with over 10 active electrodes during the baseline-recording period were used in the analysis. Synchronized activity was defined as spike and burst activity that occurred on 25% of the electrodes or more in a well within 100 ms of each other. […] All data reflects well-wide averages, where the reported value of n represents the number of wells per condition.

Positions of bridges follow the written chain, without caps; N, C: chain ends. Non-standard residues stand in square brackets, D forms with d. Residues, ends and D or L forms follow the SMILES beside them. Chains are numbered I, II in the order given. *: point of attachment. PEG6 = NCCOCCOCCOCCOCCOCCOCCC(=O)O; Palmitoyl = CCCCCCCCCCCCCCCC(=O)*

As to `CCCCCCCCCCCCCCCC(=O)N[C@H](C(=O)N[C@H](C(=O)N[C@@H](C)C(=O)N[C@@H](C)C(=O)N[C@@H](CCC(=O)O)C(=O)N[C@@H](CCC(=O)O)C(=O)N[C@@H](CCC(=O)O)C(=O)N[C@@H](CCC(=O)O)C(=O)NCCOCCOCCOCCOCCOCCOCCC(=O)NCCCC[C@@H]1NC(=O)[C@H]2CCCN2C(=O)[C@H](CCCNC(=N)N)NC(=O)[C@H](CCCCN)NC(=O)[C@H](CCCCN)NC1=O)C(C)C)C(C)C` [BDNF PA, RKK(aK)(dP)-(PEG6 Spacer)-EEEEAAVV-C16 (SEQ ID NO: 5)] (I: Palmitoyl-VVAAEEEE[PEG6] / II: cyclo(KKKR[dP]); amide I:C-II:1), the “MAP2 expression (neuronal maturation marker)” value in assay [1] is “significant increase”. Further, in assay [2], the spontaneous firing frequency result is on record as “increased spontaneous firing frequency relative to the control condition”, the network burst duration result is “longer network bursts” and the “spikes per network burst” value is on record as “significantly more spikes per network burst”.

B1: BDNF protein: Human/Murine/Rat BDNF protein (Peprotech) (protein, UniProt P23560 19-247, looked up)
Neurotrophic factor BDNF …: APMKEANIRGQGGLAYPGVRTHGTLESVNGPKAGSRGLTSLADTFEHVIEELLDEDQKVRPNEENNKDADLYTSRVMLSSQVPLEPPLLFLLEEYKNYLDAANMSMRVRRHSDPARRGELSVCDSISEWVTAADKKTAVDMSGGTVTVLEKVPVSKGQLKQYFYETKCNPMGYTKEGCRGIDKRHWNSQCRTTQSYVRALTMDSKKRIGWRFIRIDTSCVCTLTIKRGR
For B1, the “MAP2 expression (neuronal maturation marker)” value in assay [1] is given as “significant increase”. Further, in assay [2], the spontaneous firing frequency result is reported as “increased spontaneous firing frequency relative to the control condition”, the network burst duration entry is given as “longer network bursts” and the “spikes per network burst” value is given as “significantly more spikes per network burst”.
